Laboratory results as given in US8097266B2, “Solvent systems for pour-on formulations for combating parasites” (Merial Limited, priority 2007, dated 2012).

Experiments:
[1] = Preliminary stability of Table 3 formulations at 50° C.; type: physicochemical; conditions: addition of glycerol formal
Description: Larger batches (100 mL) of formulations were made for use in preliminary stability studies.
Eprinomectin was also included in the formulation studies at the same end product concentration as ivermectin (0.5% w/v). The formulations shown in Table 3 were monitored for stability.
In order to evaluate the stability of formulations, analytical methods (described below) were developed to assay each active ingredient and monitor any degradation.
This HPLC assay was developed as an external standardization method which involves volumetric dilution of an accurately weighed amount of standard material and sample. The chromatographic method comprises an isocratic elution and detection of analyte components using the run parameters below: […]

[2] = type: physicochemical
Description: In addition to examination of solutions for clarity, aged samples (2 months@ 25° C.) were examined chromatographically for degradation.
In order to elucidate possible degradation components, solutions of active components were subjected to forced degradation conditions of acid, base, and peroxide at elevated temperature.
Samples containing ivermectin and clorsulon were prepared in acetonitrile and subjected to acid (a few drops of phosphoric acid), alkaline (a few drops of 1N sodium hydroxide) and peroxide (a small amount of t-butyl peroxide or hydrogen peroxide) degradation conditions. Samples were first analyzed for signs of degradation after a few days at ambient temperature. If, after this time there were no signs of degradation the samples were further ‘stressed’ by storage at 40° C.

Relative stability of the two active compounds [2] | Molecule | Stabilization of eprinomectin in formulation [1]
– | eprinomectin | stabilized by the addition of glycerol formal
more stable | Nc1cc(C(Cl)=C(Cl)Cl)c(S(N)(=O)=O)cc1S(N)(=O)=O [clorsulon, 4-amino-6-trichloroethenyl-1,3-benzene disulfonamide] | –
